Measurements reported in ChEMBL document CHEMBL6083208, “Integrating amino acids into Bcr-Abl inhibitors: design, synthesis, biological evaluation, and in silico studies” (RSC Med Chem, 2024).
Active and inactive are the calls of the source. No cut-off for these calls is given here.

Key:
Bcr/Abl fusion protein = Bcr/Abl fusion protein (Homo sapiens, UniProt P00519); test: Inhibition of wild type Bcr-Abl (unknown origin) using Abltide as substrate incubated for 1 hr by luminescence based ADP-glo assay; assay type: protein assay
Bcr/Abl fusion protein, sequence (P00519 whole entry, the tested form may be a part): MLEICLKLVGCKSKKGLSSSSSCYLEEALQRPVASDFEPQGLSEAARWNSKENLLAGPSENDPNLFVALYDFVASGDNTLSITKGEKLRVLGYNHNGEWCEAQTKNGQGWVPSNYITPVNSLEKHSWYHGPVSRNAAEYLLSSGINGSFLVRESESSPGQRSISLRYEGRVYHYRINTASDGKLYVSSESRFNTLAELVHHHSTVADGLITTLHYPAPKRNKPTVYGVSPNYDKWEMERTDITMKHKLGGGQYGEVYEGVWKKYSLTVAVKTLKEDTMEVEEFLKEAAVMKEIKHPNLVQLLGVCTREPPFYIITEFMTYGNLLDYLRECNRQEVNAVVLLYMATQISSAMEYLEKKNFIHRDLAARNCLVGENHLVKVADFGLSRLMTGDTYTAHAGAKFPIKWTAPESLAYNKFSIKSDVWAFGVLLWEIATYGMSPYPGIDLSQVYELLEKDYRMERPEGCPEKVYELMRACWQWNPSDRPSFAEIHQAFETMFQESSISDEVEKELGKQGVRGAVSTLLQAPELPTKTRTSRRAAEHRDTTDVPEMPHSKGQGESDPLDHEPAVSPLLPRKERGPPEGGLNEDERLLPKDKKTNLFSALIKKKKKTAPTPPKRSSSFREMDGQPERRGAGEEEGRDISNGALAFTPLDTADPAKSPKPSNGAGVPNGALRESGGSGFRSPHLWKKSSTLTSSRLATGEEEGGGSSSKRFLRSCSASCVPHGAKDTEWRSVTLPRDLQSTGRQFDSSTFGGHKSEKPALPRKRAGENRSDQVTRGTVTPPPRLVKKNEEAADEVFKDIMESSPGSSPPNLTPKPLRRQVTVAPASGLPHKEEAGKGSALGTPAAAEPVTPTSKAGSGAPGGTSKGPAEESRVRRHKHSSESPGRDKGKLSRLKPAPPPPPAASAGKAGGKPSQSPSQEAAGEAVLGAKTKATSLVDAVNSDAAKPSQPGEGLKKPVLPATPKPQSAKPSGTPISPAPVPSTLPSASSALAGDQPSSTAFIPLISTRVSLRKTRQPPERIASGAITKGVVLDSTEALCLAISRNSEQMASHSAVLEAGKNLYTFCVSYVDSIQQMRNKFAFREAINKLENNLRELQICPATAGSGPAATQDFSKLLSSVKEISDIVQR
Bcr/Abl fusion protein, sequence (P11274 whole entry, further chain, the tested form may be a part): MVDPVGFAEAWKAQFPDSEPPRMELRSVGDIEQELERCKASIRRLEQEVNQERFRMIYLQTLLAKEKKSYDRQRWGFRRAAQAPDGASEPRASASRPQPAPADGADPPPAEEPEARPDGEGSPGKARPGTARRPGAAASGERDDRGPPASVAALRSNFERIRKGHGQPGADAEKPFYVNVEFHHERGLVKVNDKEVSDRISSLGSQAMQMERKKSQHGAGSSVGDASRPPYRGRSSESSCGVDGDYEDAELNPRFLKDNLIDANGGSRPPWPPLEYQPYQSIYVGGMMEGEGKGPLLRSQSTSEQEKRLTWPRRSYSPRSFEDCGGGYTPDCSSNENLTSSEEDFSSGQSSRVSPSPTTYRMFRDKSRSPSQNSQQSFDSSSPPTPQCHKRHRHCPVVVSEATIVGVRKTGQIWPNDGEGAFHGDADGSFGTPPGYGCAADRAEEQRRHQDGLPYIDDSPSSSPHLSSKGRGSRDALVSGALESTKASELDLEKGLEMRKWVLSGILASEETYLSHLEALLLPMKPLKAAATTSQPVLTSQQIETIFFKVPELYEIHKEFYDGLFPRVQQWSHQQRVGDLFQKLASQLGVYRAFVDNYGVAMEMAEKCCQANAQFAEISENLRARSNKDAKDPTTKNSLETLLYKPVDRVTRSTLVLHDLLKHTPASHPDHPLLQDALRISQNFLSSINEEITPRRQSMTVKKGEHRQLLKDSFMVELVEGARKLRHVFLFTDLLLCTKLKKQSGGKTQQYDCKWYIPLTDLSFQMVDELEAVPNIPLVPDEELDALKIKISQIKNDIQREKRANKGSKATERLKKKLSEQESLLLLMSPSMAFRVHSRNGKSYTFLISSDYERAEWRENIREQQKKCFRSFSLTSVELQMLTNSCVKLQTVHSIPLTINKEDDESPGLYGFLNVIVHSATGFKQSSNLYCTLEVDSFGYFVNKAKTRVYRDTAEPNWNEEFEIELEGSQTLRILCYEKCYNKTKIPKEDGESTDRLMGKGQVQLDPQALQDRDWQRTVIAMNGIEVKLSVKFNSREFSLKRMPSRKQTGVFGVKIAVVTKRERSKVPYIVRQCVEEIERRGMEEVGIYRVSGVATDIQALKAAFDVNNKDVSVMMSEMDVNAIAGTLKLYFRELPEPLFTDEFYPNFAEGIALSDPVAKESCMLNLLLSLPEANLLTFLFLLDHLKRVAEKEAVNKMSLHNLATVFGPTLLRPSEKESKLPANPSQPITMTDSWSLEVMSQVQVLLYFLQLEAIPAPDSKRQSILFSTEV

[1] = Inhibition of Bcr-Abl T315Ialpha mutant (unknown origin) using Abltide as substrate incubated for 1 hr by luminescence based ADP-glo assay; parameters: species or system Homo sapiens
BaF3 [2] = test: Antiproliferative activity against mouse BaF3 cells harbouring Bcr-Abl T315I assessed of cell viability at 30 uM incubated for 72 hrs by Celltiter-glo luminescent cell viability assay relative to control; assay type: functional
BaF3 [3] = test: Antiproliferative activity against mouse BaF3 cells harbouring Bcr-Abl T315I assessed of cell viability at 10 uM incubated for 72 hrs by Celltiter-glo luminescent cell viability assay relative to control; assay type: functional
BaF3 [4] = test: Antiproliferative activity against mouse BaF3 cells harbouring Bcr-Abl T315I assessed of cell viability at 2 uM incubated for 72 hrs by Celltiter-glo luminescent cell viability assay relative to control; assay type: functional
HEK293 = test: Antiproliferative activity against HEK293 cells after 48 hrs by MTT assay; assay type: toxicity, cell-based; parameters: concentration or dose not given beside the values; details: human, hek293, 48 h
THP-1 = test: Antiproliferative activity against human THP-1 cells after 48 hrs by MTT assay; assay type: functional; parameters: concentration or dose not given beside the values
K562 [5] = test: cells; details: Homo sapiens, K562, 48 h
K562 [6] = test: Induction of apoptosis in human K562 cells assessed as viable cells at 1 uM measured after 48 hrs by annexin-V/FITC and propidium iodide double staining based flow cytometry analysis (reference value: 92.67%); assay type: functional; details: read-out: Activity
K562 [7] = test: Induction of apoptosis in human K562 cells assessed as viable cells at 10 uM measured after 48 hrs by annexin-V/FITC and propidium iodide double staining based flow cytometry analysis (reference value: 92.67%); assay type: functional; details: read-out: Activity
K562 [8] = test: Induction of apoptosis in human K562 cells assessed as viable cells at 15 uM measured after 48 hrs by annexin-V/FITC and propidium iodide double staining based flow cytometry analysis (reference value: 92.67%); assay type: functional; details: read-out: Activity
K562 [9] = test: Induction of apoptosis in human K562 cells assessed as early apoptotic cells at 1 uM measured after 48 hrs by annexin-V/FITC and propidium iodide double staining based flow cytometry analysis (reference value: 3.57%); assay type: functional
K562 [10] = test: Induction of apoptosis in human K562 cells assessed as early apoptotic cells at 10 uM measured after 48 hrs by annexin-V/FITC and propidium iodide double staining based flow cytometry analysis (reference value: 3.57%); assay type: functional
K562 [11] = test: Induction of apoptosis in human K562 cells assessed as early apoptotic cells at 15 uM measured after 48 hrs by annexin-V/FITC and propidium iodide double staining based flow cytometry analysis (reference value: 3.57%); assay type: functional
K562 [12] = test: Induction of apoptosis in human K562 cells assessed as late apoptotic cells at 1 uM measured after 48 hrs by annexin-V/FITC and propidium iodide double staining based flow cytometry analysis (reference value: 2.72%); assay type: functional
K562 [13] = test: Induction of apoptosis in human K562 cells assessed as late apoptotic cells at 10 uM measured after 48 hrs by annexin-V/FITC and propidium iodide double staining based flow cytometry analysis (reference value: 2.72%); assay type: functional
K562 [14] = test: Induction of apoptosis in human K562 cells assessed as late apoptotic cells at 15 uM measured after 48 hrs by annexin-V/FITC and propidium iodide double staining based flow cytometry analysis (reference value: 2.72%); assay type: functional
K562 [15] = test: Induction of apoptosis in human K562 cells assessed as necrotic cells at 1 uM measured after 48 hrs by annexin-V/FITC and propidium iodide double staining based flow cytometry analysis (reference value: 1.05%); assay type: functional
K562 [16] = test: Induction of apoptosis in human K562 cells assessed as necrotic cells at 10 uM measured after 48 hrs by annexin-V/FITC and propidium iodide double staining based flow cytometry analysis (reference value: 1.05%); assay type: functional
K562 [17] = test: Induction of apoptosis in human K562 cells assessed as necrotic cells at 15 uM measured after 48 hrs by annexin-V/FITC and propidium iodide double staining based flow cytometry analysis (reference value: 1.05%); assay type: functional
K562 [18] = test: Induction of cell cycle arrest in human K562 cells assessed as reduction in accumulation of cells at S phase at 1 to 20 uM measured after 48 hrs by PI staining based flow cytometry analysis; assay type: functional; details: dose 1-20 µM
K562 [19] = test: Induction of cell cycle arrest in human K562 cells assessed as increase in accumulation of cells at G0/G1 phase at 1 to 20 uM measured after 48 hrs by PI staining based flow cytometry analysis; assay type: functional; details: dose 1-20 µM
K562 [20] = test: Induction of cell cycle arrest in human K562 cells assessed as increase in accumulation of cells at G2/M phase at 1 to 20 uM measured after 48 hrs by PI staining based flow cytometry analysis; assay type: functional; details: dose 1-20 µM
[21] = target: T1, Bcr/Abl fusion protein (Homo sapiens) (UniProt P00519+P11274); test: Inhibition of wild type BCR-ABL in human K562 cells assessed as inhibition of Bcr-Abl phosphorylation level at 1 uM measured after 48 hrs by Western blot analysis; assay type: cell-based
T1 sequence (P00519 whole entry, looked up, the tested form may be a part): as the sequence (P00519 whole entry, the tested form may be a part) above
T1 sequence (P11274 whole entry, looked up, the tested form may be a part): as the sequence (P11274 whole entry, further chain, the tested form may be a part) above

[22] = target: T1, Bcr/Abl fusion protein (Homo sapiens); test: Inhibition of wild type BCR-ABL in human K562 cells assessed as inhibition of STAT5 phosphorylation level measured after 48 hrs by Western blot analysis; assay type: cell-based; details: dose 0.1-15 µM
[23] = target: T1, Bcr/Abl fusion protein (Homo sapiens); test: Inhibition of wild type BCR-ABL in human K562 cells assessed as inhibition of Bcr-Abl phosphorylation level at 20 uM measured after 48 hrs by Western blot analysis; assay type: cell-based
[24] = target: T1, Bcr/Abl fusion protein (Homo sapiens); test: Inhibition of wild type BCR-ABL in human K562 cells assessed as inhibition of STAT5 phosphorylation level at 20 uM measured after 48 hrs by Western blot analysis; assay type: cell-based

| SMILES | IC50 (Bcr/Abl fusion protein) [nM] | IC50 [1] [nM] | inhibition at 30 µM (BaF3 [2]) [%] | inhibition at 10 µM (BaF3 [3]) [%] | inhibition at 2 µM (BaF3 [4]) [%] | Activity (HEK293) [%] | Activity (THP-1) [%] | IC50 (K562 [5]) [nM] | further results |
| --- | --- | --- | --- | --- | --- | --- | --- | --- | --- |
| CC(=O)Nc1ccc(-c2cccc(C(=O)N[C@@H](CO)C(=O)Nc3ccc(Cl)c(C(F)(F)F)c3)c2)cn1 | 0.33 | 66 | 90 | 24.5 | -1.17 | 85 | 100 | 0.85 | – |
| CC(C)(C)OC[C@H](NC(=O)c1ccc(-c2ccnc(C(=O)NC3CC3)c2)cc1)C(=O)Nc1ccc(Cl)c(C(F)(F)F)c1 | 11.4 | 183 | – | 22.5 | 0 | 84 | 62 | 10.7 | – |
| CC(C)(C)C(=O)Nc1ccc(-c2cccc(C(=O)N[C@@H](CO)C(=O)Nc3ccc(Cl)c(C(F)(F)F)c3)c2)cn1 | 7.29 | 504 | – | 96.8 | 0.99 | 100 | 77 | 4.86 | – |
| CC(C)(C)OC[C@H](NC(=O)c1cccc(-c2ccc(NS(C)(=O)=O)nc2)c1)C(=O)Nc1ccc(Cl)c(C(F)(F)F)c1 | 10.6 | 138 | 96.7 | 99.9 | 0.62 | 88 | 77 | 2.59 | – |
| CC(C)(C)OC[C@H](NC(=O)c1ccc(-c2ccnc(N)c2)cc1)C(=O)Nc1ccc(Cl)c(C(F)(F)F)c1 | 0.87 | 144 | 99.8 | 25.5 | 0.7 | 94 | 56 | 3.02 | – |
| CC(C)(C)[C@H](NC(=O)c1cccc(-c2ccc(NS(C)(=O)=O)nc2)c1)C(=O)Nc1ccc(Cl)c(C(F)(F)F)c1 | 1.44 | 48 | 99.6 | 100 | 10 | 100 | 65 | 0.61 | viability at 1 µM (K562 [6]): 88.2%; viability at 10 µM (K562 [7]): 82.8%; viability at 15 µM (K562 [8]): 82.5%; Activity (K562 [9]): 7.15%; Activity (K562 [10]): 8.2%; Activity (K562 [11]): 8.69%; Activity (K562 [12]): 4.45%; Activity (K562 [13]): 8.64%; Activity (K562 [14]): 8.48%; Activity (K562 [15]): 0.17%; Activity (K562 [16]): 0.4%; Activity (K562 [17]): 0.28%; Activity (K562 [18]): Active; Activity (K562 [19]): Active; Activity (K562 [20]): Active; inhibition [21]: Active; inhibition [22]: Dose-dependent-effect; inhibition [23]: Active; inhibition [24]: Active |
| CC(=O)Nc1ccc(-c2cccc(C(=O)N[C@H](C(=O)Nc3ccc(Cl)c(C(F)(F)F)c3)C(C)(C)C)c2)cn1 | 7.26 | 165 | – | 100 | 7.81 | 86 | 100 | 10.1 | – |
| CC(C)(C)OC[C@H](NC(=O)c1ccc(-c2ccnc(NS(C)(=O)=O)c2)cc1)C(=O)Nc1ccc(Cl)c(C(F)(F)F)c1 | 0.33 | 51 | 96.7 | 27.6 | 7.49 | 93 | 94 | 0.19 | – |
| CC(C)(C)OC[C@H](NC(=O)c1cccc(-c2cncc(C(=O)NC3CC3)c2)c1)C(=O)Nc1ccc(Cl)c(C(F)(F)F)c1 | 9.3 | 608 | – | 94.1 | 1.93 | 95 | 69 | 8.86 | – |
| CC(=O)Nc1cc(-c2ccc(C(=O)N[C@H](C(=O)Nc3ccc(Cl)c(C(F)(F)F)c3)C(C)(C)C)cc2)ccn1 | 9.9 | 180 | 99.8 | 31.8 | 4.64 | 88 | 68 | 3.31 | – |
| CC(C)(C)[C@H](NC(=O)c1ccc(-c2cncc(C(=O)NC3CC3)c2)cc1)C(=O)Nc1ccc(Cl)c(C(F)(F)F)c1 | 8.02 | 140 | 100 | 42.6 | 5.84 | 91 | 100 | 3.34 | – |
| Nc1ccc(-c2cccc(C(=O)N[C@@H](CO)C(=O)Nc3ccc(Cl)c(C(F)(F)F)c3)c2)cn1 | 1.6 | 148 | 88.3 | 15.2 | -0.03 | 93 | 84 | 2.13 | – |
| CC(C)(C)[C@H](NC(=O)c1ccc(-c2ccnc(NS(C)(=O)=O)c2)cc1)C(=O)Nc1ccc(Cl)c(C(F)(F)F)c1 | 3.93 | 66.9 | 100 | 36.1 | 8.95 | 81 | 100 | 0.93 | – |
| O=C(NC1CC1)c1cncc(-c2cccc(C(=O)N[C@@H](CO)C(=O)Nc3ccc(Cl)c(C(F)(F)F)c3)c2)c1 | 1.35 | 348 | 66.1 | – | – | 99 | 72 | 2.79 | – |
| CC(C)(C)[C@H](NC(=O)c1cccc(-c2cncc(C(=O)NC3CC3)c2)c1)C(=O)Nc1ccc(Cl)c(C(F)(F)F)c1 | 34 | 207 | – | 65.6 | 7.2 | 90 | 100 | 8.47 | – |
| O=C(NC1CC1)c1cncc(-c2ccc(C(=O)N[C@@H](CO)C(=O)Nc3ccc(Cl)c(C(F)(F)F)c3)cc2)c1 | 1.11 | 60 | 82.5 | – | – | 89 | 58 | 1.68 | – |
| CC(C)(C)C(=O)Nc1ccc(-c2cccc(C(=O)N[C@H](C(=O)Nc3ccc(Cl)c(C(F)(F)F)c3)C(C)(C)C)c2)cn1 | 26.5 | 351 | 98.1 | 100 | 99.9 | 81 | 73 | 0.97 | – |
| CC(C)(C)OC[C@H](NC(=O)c1cccc(-c2ccc(N)nc2)c1)C(=O)Nc1ccc(Cl)c(C(F)(F)F)c1 | 0.27 | 105 | -5 | – | – | 96 | 100 | 1.27 | – |
| CC(C)(C)C(=O)Nc1cc(-c2ccc(C(=O)N[C@H](C(=O)Nc3ccc(Cl)c(C(F)(F)F)c3)C(C)(C)C)cc2)ccn1 | 16.8 | 481 | 8.24 | – | – | 87 | 94 | 5.36 | – |
| CC(C)(C)OC[C@H](NC(=O)c1ccc(-c2ccnc(NC(=O)C(C)(C)C)c2)cc1)C(=O)Nc1ccc(Cl)c(C(F)(F)F)c1 | 4.44 | 303 | -3.86 | – | – | 90 | 63 | 3.12 | – |
